Test results: patent publication US10959966B2, “Compositions and methods for modulating HEXM1 expression” (CASE WESTERN RESERVE UNIVERSITY, priority 2014, dated 2021)

Key:
[1] = system: recruitment of CDK9 to HEXIM1 gene in MCF7 cells; test: ChIP assay, CDK9 recruitment to HEXIM1 gene, MCF7 cells; assay type: cell-based; details: 5 mM HMBA or 50 μM 4a1, 90 minutes
Description: (§1) FIGS. 6(A-B) illustrate graphs showing HEXIM1 graphs showing HMBA and 4a1 induced recruitment of CDK9 to HEXIM1 promoter in MCF7 and LNCaP cells treated with 5 mM HMBA or 50 μM 4a1 for 90 minutes.
(§2) ChIP assays were carried out as previously described. Anti-CDK9 antibody (D-7; cat# sc-13130) was obtained from Santa Cruz Biotechnology.
(§3) The induction of HEXIM1 by HMBA appears to involve the release of free P-TEFb from 7SK snRNP, and recruitment of P-TEFb to HEXIM1 gene. P-TEFb is a heterodimer between the cyclin-dependent kinase 9 (Cdk9) and its regulatory subunit Cyclin T1 (CycT1). We thus determined the regulation of the recruitment of CDK9 to the HEXIM1 coding sequence by HMBA and 4a1.

[2] = in vivo; cited from earlier work
[3] = system: HEXIM1 targets in MCF7 cells; test: Western blot of HEXIM1 targets in MCF7 cells; assay type: cell-based; details: 5 mM HMBA or 50 uM 4a1, 18 h, relative to GAPDH
Description: FIG. 10 illustrates a Western blot of MCF7 cells treated with vehicle, 5 mM HMBA, or 50 uM 4a1 for 18 h, and processes for analyses of HEXIM1 targets relative to GAPDH.
(§4) Cell lysates were analyzed by western blot as previously described. Anti-HEXIM1 was generated in the Montano laboratory. Primary antibodies against p21 (C-19; cat# sc-397), cyclin D1 (HD11; cat# sc-246) and myc (9E10; cat# sc-40) were obtained from Santa Cruz Biotechnology. Anti-GAPDH was obtained from Millipore. Anti-HIF-1α was obtained from Oxy-cell, Bioresearch).
To assess the clinical potential of HMBA and 4a1 we need to determine to what extent the targets of HMBA and 4a1 overlap with that of HEXIM1. We focused on direct targets of HEXIM1 that we have identified.

[4] = administered in vivo; cited from earlier work
[5] = system: p21 expression in breast cancer MCF7 cells; test: p21 expression by western blot, MCF7 cells; assay type: cell-based; details: 5 mM HMBA or 50 μM 4a1, 18 hours
Description: (§5) FIGS. 7(A-B) illustrate Western blots showing (A) MCF7 (control siRNA or HEXIM1 siRNA) and (B) LNCaP (control shRNA or HEXIM1 shRNA) cells treated with vehicle (DMSO), 5 mM HMBA, or 50 μM 4a1 for 18 hours.
as §4
(§6) HMBA was investigated in a Phase II clinical trial due to its potent anti-cancer and cell differentiation activities. Moreover, the roles of HMBA, and potentially 4a1, as differentiating factors are advantageous for their therapeutic use when compared to cytotoxic agents. […] We also examined the ability of 4a1 to induce differentiation and the relative role of HEXIM1.

[6] = system: p21 expression in prostate cancer LNCaP cells; test: p21 expression by western blot, LNCaP cells; assay type: cell-based; details: 5 mM HMBA or 50 μM 4a1, 18 hours
Description: as §5, §4, §6

HEXIM1 = details: in vitro cell cultures; cited from earlier work
[7] = system: recruitment of CDK9 to HEXIM1 gene in LNCaP cells; test: ChIP assay, CDK9 recruitment to HEXIM1 gene, LNCaP cells; assay type: cell-based; details: 5 mM HMBA or 50 μM 4a1, 90 minutes
Description: as §1, §2, §3

[8] = system: HEXIM1 expression in MCF7/TOTR cells; test: HEXIM1 expression in tamoxifen resistant MCF7/TOTR cells; assay type: cell-based; details: 5 mM HMBA or 50 μM 4a1
Description: (§7) FIGS. 9(A-B) illustrate a Western blot and plots showing HEXIM1 expression in MCF7 and MCF7(TOTR) cells in the presence of vehicle (DMSO), 5 mM HMBA or 50 μM 4a1.
(§8) MCF7, MDA-MB-231, and LNCaP cells were obtained from the American Tissue Culture Collection, and were maintained as previously described. Construction of expression vectors for control miRNA or HEXIM1 miRNAs were described previously. MCF7 or LNCaP cells were transfected with expression vectors containing either the HEXIM1 miRNA insert or a control miRNA insert as previously described. Following blasticidin selection, cells expressing the highest level of GFP were flow-sorted and expanded. MDA-MB-231 cells were transfected with control or expression vector for Flag-tagged HEXIM1 as previously described. […]
Cell lysates were analyzed by western blot as previously described. […]
(§9) We have reported that HEXIM1 is required for the ability of antiestrogens to inhibit the activity of the Estrogen Receptor, that loss of HEXIM1 results in agonistic activity of tamoxifen, and that recurrence after tamoxifen therapy can be correlated with loss of HEXIM1 expression in human breast tissue samples. Thus we determined if HMBA and 4a1 can enhance sensitivity to tamoxifen of a tamoxifen resistant breast cancer line (MCF7/TOTR). […]

MCF7 cells = test: Nile red staining of lipid droplets (differentiation marker), MCF7 cells; assay type: cell-based; details: 72 hours
Description: (§10) FIGS. 8(A-B) illustrate images showing (A) MCF7 cells transfected with control or HEXIM1 siRNA or (B) MDA-MB-231 transfected with control or HEXIM1 expression vector treated with vehicle (DMSO), HMBA, or 4a1 for 72 hours. Lower panels show Western blot analyses of HEXIM1 expression in MDA-MB-231 cells transfected with control or expression vector for Flag-tagged HEXIM1.
(§11) Cells were stained with Nile red for lipid droplets (marker of cell differentiation). Briefly, the stock solution of Nile red 1 mg/ml in acetone was diluted in PBS (1:1000). The fixed cells (4% paraformaldehyde) were incubated with diluted Nile red for 5 minutes at room temperature, rinsed with PBS and observed for the presence of lipid droplets by confocal microscopy. Images were digitally captured using a Leica microscope (Leica Microsystems Inc, IL, USA).

[9] = system: triple negative MDA-MB-231 breast cancer cells; test: Nile red staining of lipid droplets (differentiation marker), MDA-MB-231 cells; assay type: cell-based; details: 72 hours
Description: as §10, §11

[10] = system: tamoxifen resistant breast cancer line (MCF7/TOTR); test: MTT proliferation assay, sensitivity to trans-hydroxytamoxifen; assay type: cell-based; details: 7 days, 5 mM HMBA or 50 μM 4a1
Description: as §7
as §8, with “expanded.” for “expanded. MDA-MB-231 cells were transfected with control or expression vector for Flag-tagged HEXIM1 as previously described.”
MCF7 cells were plated onto 96 well plates and treated with 17β-estradiol±trans-hydroxytamoxifen in the presence of DMSO (vehicle), HMBA or 4a1 for 7 days. Cell proliferation was assessed using the MTT based Cell Growth Determination Kit from Sigma-Aldrich according to the manufacturer's protocol.
as §9

[11] = cited from earlier work

Question: Which results are given for `CC(=O)NCCCCCCNC(C)=O` [HMBA, Hexamethylene bis-acetamide, reference compound]?
Answer: Recruitment of CDK9 to HEXIM1 gene [1]: induce recruitment of CDK9; Toxicity in Phase II clinical trial [2]: dose-dependent toxicity; Expression of proteins directly regulated by HEXIM1 [3]: regulated expression of proteins; Half-life [4]: short half-life; Tissue distribution [4]: poor tissue distribution; p21 expression [5]: induced p21 expression; p21 expression [6]: induction of p21 expression; Concentrations at which HMBA induces HEXIM1 (HEXIM1): one to five; Recruitment of CDK9 to HEXIM1 gene [7]: induce recruitment of CDK9; HEXIM1 expression [8]: induced HEXIM1 expression; Cell differentiation (lipid droplets, Nile red) (MCF7 cells): induced differentiation; Cell differentiation (lipid droplets, Nile red) [9]: induced differentiation; Sensitivity of TOTR cells to trans-hydroxytamoxifen [10]: enhanced the sensitivity; Water solubility [11]: water soluble
